Results reported in PMC9146374, “Extra Virgin Olive Oil Secoiridoids Modulate the Metabolic Activity of Dacarbazine Pre-Treated and Treatment-Naive Melanoma Cells” (Molecules, 2022).
“And” between values parts separate entries of the source, which are not always exact repeats. Equal entries are not always repeated. Where two headings read alike, the source gives them in different places.

Key:
A375 melanoma cell line = assay: MTS assay of metabolic activity (cell viability), 48 h exposure, A375 cells; format: cell-based, human; conditions: for IC60 / IC50: A375, 48 h, MTS, ± SEM; for IC60: concentration decreasing biological activity to 60%
Protocol: (§1) Biological activity upon treatment with EVOO-PEs, DTIC, OCEIN, and OCAL was evaluated using an MTS assay in in vitro experimental models, including the A375 and A375M cancer cell lines and HaCaT immortalized cell line. […] Due to the fast cell growth rate, a longer incubation period or denser initial seeding caused the overgrowth of untreated cells. In comparison, a shorter incubation period or lower initial density caused the effect of the test substances to be more difficult to detect. Therefore, the experiments were performed within a 48-hour timeframe. In addition, to avoid the misinterpretation of the results, we checked whether the vehicle, which was DMSO for the test substances, had any effect on metabolic activity by exposing each cell type to 0.2 and 0.4% DMSO, i.e., to the highest final DMSO concentrations achieved with the highest final concentrations of test substances. […] Accordingly, the effects of the test substances were determined as relative biological activities (in terms of cell viability, i.e., cell survival) compared to the untreated cells (controls). The cells were treated with a series of dilutions made by diluting full strength (100%) EVOO-PE to concentrations of 0.025–0.400 % (v/v) of EVOO-PE in the medium.
(§2) Cells were grown in complete cell culture media, consisting of RPMI 1640, 2 mmol/L glutamine, 10% heat-inactivated foetal bovine serum (FBS), penicillin (100 IU/mL; 1 IU 67.7 µg/mL), and streptomycin (100 µg/mL). Cultures were maintained in a moisturized atmosphere with 5% CO2 at 37 °C and 95% relative humidity. All experiments were performed on cells between passages 4 and 8. The biological activity of the three EVOO-Pes, DTIC, OCEIN, and OCAL, as well as biological activity of the three EVOO-PEs following 6 h pre-incubation with DTIC was determined using a CellTiter 96®AQueous One Solution Cell Proliferation Assay. In short, 100 µL of cell cultures was seeded into 96-well tissue culture plates (A375 and HaCaT at a concentration of 2 × 10^3 cells/well, A375M at 7 × 10^3 cells/well). The next day, the medium was aspirated and media containing different concentrations of compounds were added to each well. All test compounds except DTIC were initially dissolved in DMSO and serially diluted in culture medium to obtain the final concentrations. DTIC was initially dissolved in culture medium, warmed to 37 °C, activated during 1 h exposure to light, and diluted in culture medium. The controls contained the test model cells and culture medium (containing either the complete medium or the DMSO in the highest final concentration, 0.2% and 0.4%) but no test compounds. The cells were incubated for 48 h before biological activity was measured. When investigating the combined effect, we exposed cells to DTIC for 6 h, removed the medium, and exposed the cells to medium containing EVOO-PE extracts for the next 24 h. In addition to the non-treated cells, the controls for experiments with DTIC pre-incubation were cells that had been exposed to DTIC for 6 h and cultured in a complete medium afterwards (without EVOO-PE). After incubation, media were aspirated, and 90 µL of serum-free medium containing MTS was added, according to the manufacturer’s instructions. After 1.5 h of incubation in the dark, the absorbance was measured at a wavelength of 490 nm using a microplate reader, Victor2-1420 Multilabel Counter (PerkinElmer, Yokohama, Japan). A negative control (medium without cells) was used as a blank. All experiments were performed in hexaplicate.
(§3) The GraphPad Prism software version 9.0.0 for Windows (GraphPad Software, San Diego, CA, USA), was used for the determination of inhibitory concentration as well as for statistical analysis. The normality of the data distribution was accessed using Kolmogorov–Smirnov and Shapiro–Wilk tests. The IC60 and IC50 values (concentrations that reduced cell growth to 60% or 50% of the initial value, respectively) were determined using a nonlinear regression curve fit. […]

[1] = test system: A375M metastatic melanoma cell line; assay: MTS assay of metabolic activity (cell viability), 48 h exposure, A375M cells; format: cell-based, human; conditions: for effect on A375M cells: Figure S5b
Protocol: as §1
as §2, with “The controls contained the test model cells and culture medium (containing either the complete medium or the DMSO in the highest final concentration, 0.2% and 0.4%) but no test compounds.” left out, “When investigating the combined effect, we exposed cells to DTIC for 6 h, removed the medium, and exposed the cells to medium containing EVOO-PE extracts for the next 24 h. In addition to the non-treated cells, the controls for experiments with DTIC pre-incubation were cells that had been exposed to DTIC for 6 h and cultured in a complete medium afterwards (without EVOO-PE). After incubation, media were aspirated, and 90 µL of serum-free medium containing MTS was added, according to the manufacturer’s instructions.” left out, “A negative control (medium without cells) was used as a blank. All experiments were performed in hexaplicate.” left out

[2] = test system: HaCaT immortalized keratinocytes; assay: MTS assay of metabolic activity (cell viability), 48 h exposure, HaCaT cells; format: cell-based; conditions: ± SEM, DTIC applied up to 1000 µM, italic values extrapolated; for IC50: Homo sapiens
Protocol: as §1, §2, §3

501Mel melanoma cells = test system: 501Mel melanoma cells; set-up: method as in earlier work; conditions: ref 22 (Carpi et al.); read-out: IC50 of OCEIN on 501Mel melanoma cells; cited from earlier work
A375 cells = conditions: cited from earlier work; for IC50: homemade isolated OCAL purified to 95%

IC50 (A375 melanoma cell line) [µM] | IC50 (A375 melanoma cell line; Homo sapiens, A-375, 48 h) [µM] | IC50 ([1]; Homo sapiens, A375M, ± SEM, DTIC applied up to 1000 µM, interpret with caution) [µM] | Structure (SMILES) | IC60 (A375 melanoma cell line) | effect on A375M cells [1] | IC50 [2] [µM] | IC60 [2] [µM] | IC50 (501Mel melanoma cells) [µM] | IC60 ([1]; A375M, ± SEM, DTIC applied up to 1000 µM, interpret with caution) [µM] | viability at 60 µM (A375 melanoma cell line; Homo sapiens, A-375, 60 µM OCAL, cell line not given, read-out: viability compared to control) [%] | viability compared to control (A375 cells; 60 µM OCAL (highest applied), cell line not given, ref 25 (Gu et al.)) | IC50 (A375 cells; ref 24 (Fogli et al.)) [µM] | IC50 (A375 cells; ref 25 (Gu et al.)) [µM]
113 ± 4.92 | 112 | – | CC=C(C=O)C(CC=O)CC(=O)OCCc1ccc(O)c(O)c1 (centres unmarked) [OCEIN, oleacein] | 101.052 µM and 101.052 ± 4.610 µM | failed to provoke any effect | 114 ± 2.3 | 103.061 ± 2.086 | 82 | – | – | – | – | –
– | 362 | 872 ± 62.2 | CN(C)/N=N/c1[nH]cnc1C(N)=O [DTIC, dacarbazine] | 214.358 ± 13.449 µM | – | > 1000 | 1137 ± 93.752 | – | 709.780 ± 99.634 | – | – | – | –
67.5 ± 1.86 | 67 | – | C/C=C(/C=O)[C@@H](CC=O)CC(=O)OCCc1ccc(O)cc1 [OCAL, oleocanthal] | 58.488 µM and 58.488 ± 1.836 µM | failed to provoke any effect | 130 ± 3.21 | 112.827 ± 2.904 | – | – | ~80 | ~ 80% | 13.6 | ~20
